In brackets after ≈: the same amount, converted by molar mass.
How the values were obtained:
HBV [1] = assay: Anti-HBV activity in vitro in HepG2.2.15 cells (extracellular HBV DNA by qPCR); format: cell-based, Hepatitis B virus; details: Hepatitis B virus; HepG2.2.15 cells; in-house data; read-out: EC50
Summary of the method: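 Supernatant HBV DNA was measured by qPCR after viral DNA extraction. Samples came from 5-day cultures of HepG2.2.15 cells, an HBV-genome-transfected HepG2 line, exposed to half-log compound dilutions in medium containing 0.5% DMSO.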

HepDE19 cells = assay: Cytotoxicity (CC50) in HepDE19 cells, CCK-8 cell viability; format: cell-based
Summary of the method: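 HBV-transfected HepG2-derived HepDE19 cells grown in DMEM-F12 with 10% FBS and G418. Viability read five days after treatment by CCK-8, 2 h at 37 °C, absorbance at 450 and 630 nm.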

HBV [2] = assay: Selectivity index (CC50 value/EC50 value); format: cell-based, Hepatitis B virus
Summary of the method: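 Ratio of CC50 to EC50, measuring antiviral activity against HBV relative to cytotoxicity in vitro; higher values indicate greater separation between viral inhibition and cell death.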

[3] = Metabolic stability study in human microsome; format: in vitro ADME
Summary of the method: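 Depletion of 1 μM compound followed by LC-MS/MS over 0–30 min (0, 3, 6, 9, 15, 30 min) after methanol quench. Incubations at 37 °C, pH 7.4 phosphate buffer, 0.5 mg/mL microsomal protein, with NADPH (1 mM) or a regenerating system as cofactor; controls lacked cofactor.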

[4] = Lyophilisation solubility assay (Lysa); format: physicochemical; details: phosphate buffer, pH 6.5, aqueous buffer, thermodynamic from solid
Summary of the method: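 Solubility in μg/mL is read by UV or HPLC-UV on filtrate, neat and diluted 1/10. Before filtration, the residue from evaporated 10 mM DMSO stock was taken up in pH 6.5 0.05 M phosphate buffer, then stirred 1 h, shaken 2 h and stood overnight, in duplicate.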

Compound	EC50 (HBV [1])	CC50 (HepDE19 cells)	Selectivity index (CC50/EC50) (HBV [2])	Human Hepatic Clearance [3]	solubility thermodynamic [4]
CCOC(=O)C1=C(CN2CCOC[C@H]2C(=O)O)NC(c2nccs2)=N[C@H]1c1ccc(F)cc1Cl [Example 31, (S)-4-[(R)-6-(2-Chloro-4-fluoro-phenyl)-5-ethoxycarbonyl-2-thiazol-2-yl-3,6-dihydro-pyrimidin-4-ylmethyl]-morpholine-3-carboxylic acid]	2 nM	> 100000 nM	>50000	4.68 mL/min/kg	630 µg/mL (≈ 1240 µM)
COC(=O)C1=C(CN2CCOC[C@H]2C(=O)O)NC(c2nccs2)=N[C@H]1c1cccc(F)c1Cl [Example 47, (S)-4-[(R)-6-(2-Chloro-3-fluoro-phenyl)-5-methoxycarbonyl-2-thiazol-2-yl-3,6-dihydro-pyrimidin-4-ylmethyl]-morpholine-3-carboxylic acid]	4.4 nM	> 100000 nM	>2273	1.46 mL/min/kg	> 660 µg/mL
O=C(OCC(F)(F)F)C1=C(CN2CCOC[C@H]2C(=O)O)NC(c2nccs2)=N[C@H]1c1ccc(F)cc1Cl [Example 51, (S)-4-[(R)-6-(2-Chloro-4-fluoro-phenyl)-2-thiazol-2-yl-5-(2,2,2-trifluoro-ethoxycarbonyl)-3,6-dihydro-pyrimidin-4-ylmethyl]-morpholine-3-carboxylic acid]	13 nM	27000 nM	2117	0 mL/min/kg	> 695 µg/mL
CCOC(=O)C1=C(CN2CCOC[C@H]2C(=O)O)NC(c2nccs2)=N[C@H]1c1ccc(F)cc1 [Example 54, (S)-4-[(S)-5-Ethoxycarbonyl-6-(4-fluoro-phenyl)-2-thiazol-2-yl-3,6-dihydro-pyrimidin-4-ylmethyl]-morpholine-3-carboxylic acid]	14 nM	62000 nM	4293	0 mL/min/kg	> 606 µg/mL
CCOC(=O)C1=C(CN2CCOC[C@H]2C(=O)O)NC(c2nccs2)=N[C@H]1c1ccc(F)cc1F [Example 58, (S)-4-[(R)-6-(2,4-Difluoro-phenyl)-5-ethoxycarbonyl-2-thiazol-2-yl-3,6-dihydro-pyrimidin-4-ylmethyl]-morpholine-3-carboxylic acid]	14 nM	> 100000 nM	>7353	1.26 mL/min/kg	> 638 µg/mL
CCOC(=O)C1=C(CN2CCOC[C@H]2C(=O)O)NC(c2nccs2)=N[C@H]1c1ccc(F)c(F)c1Cl [Example 60, (S)-4-[(R)-6-(2-Chloro-3,4-difluoro-phenyl)-5-ethoxycarbonyl-2-thiazol-2-yl-3,6-dihydro-pyrimidin-4-ylmethyl]-morpholine-3-carboxylic acid]	0.6 nM	29000 nM	47783	4.8 mL/min/kg	> 703 µg/mL
CCOC(=O)C1=C(CN2CCOC[C@H]2C(=O)O)NC(c2nccs2)=N[C@H]1c1cccc(F)c1Cl [Example 63, (S)-4-[(R)-6-(2-Chloro-3-fluoro-phenyl)-5-ethoxycarbonyl-2-thiazol-2-yl-3,6-dihydro-pyrimidin-4-ylmethyl]-morpholine-3-carboxylic acid]	0.8 nM	> 100000 nM	>125000	1.71 mL/min/kg	> 679 µg/mL
CCOC(=O)C1=C(CN2CCOC[C@H]2C(=O)O)NC(c2nccs2)=N[C@H]1c1cccc(F)c1Br [Example 66, (S)-4-[(R)-6-(2-Bromo-3-fluoro-phenyl)-5-ethoxycarbonyl-2-thiazol-2-yl-3,6-dihydro-pyrimidin-4-ylmethyl]-morpholine-3-carboxylic acid]	0.7 nM	95000 nM	135714	1.64 mL/min/kg	> 669 µg/mL
